One assay has as its target Human Cot (Homo sapiens (Human), UniProt P41279). Description: High Throughput Cot Biochemical Assay.
A further assay relates to TNFα. Description: Cot Monocyte TNFα Cell Based Assay.
The mark [1] stands for this setting: IC50 HTRF, Cot HTRF (TR-FRET) biochemical assay.
Where [2] appears, read: Homo sapiens, Monocyte, read-out: EC50 TNF, LPS-stimulated human monocytes, TNFα.
Setting [3] is: IC50 HTRF, Cot HTRF (TR-FRET KinEASE) biochemical assay, 400 μM ATP.
Where [4] appears, read: Homo sapiens, Monocyte, read-out: EC50 TNF, LPS-stimulated human monocytes, TNFα TR-FRET.

Molecules are shown by their SMILES. Like-named read-outs stand apart in the source and are kept apart here.

Chain of Human Cot (P41279 30-397): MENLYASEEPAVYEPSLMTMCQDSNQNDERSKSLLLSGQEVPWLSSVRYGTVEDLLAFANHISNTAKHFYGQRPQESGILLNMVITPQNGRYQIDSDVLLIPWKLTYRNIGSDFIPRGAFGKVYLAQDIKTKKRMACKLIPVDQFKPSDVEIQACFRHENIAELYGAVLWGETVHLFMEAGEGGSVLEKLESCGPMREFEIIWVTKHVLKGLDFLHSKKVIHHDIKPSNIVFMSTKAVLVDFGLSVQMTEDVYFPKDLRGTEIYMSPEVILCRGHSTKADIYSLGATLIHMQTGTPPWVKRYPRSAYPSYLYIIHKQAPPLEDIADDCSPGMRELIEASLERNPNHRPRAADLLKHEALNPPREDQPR

As a reminder, the IC50 is the midpoint of a concentration-inhibition curve. A word on the EC50: it is the concentration that produces a half-maximal response. At Human Cot (setting [1]), `CC(C)(C)CNc1c(C#N)cnc2c(Cl)cc(N[C@H](c3cn(C4CCN(C(C)(C)C)CC4)nn3)c3cccc4ncsc34)cc12` [Example 419, (S)-6-((benzo[d]thiazol-7-yl(1-(1-(tert-butyl)piperidin-4-yl)-1H-1,2,3-triazol-4-yl)methyl)amino)-8-chloro-4-(neopentylamino)quinoline-3-carbonitrile] returned a half-maximal inhibitory concentration (IC50) of 3 nM. The EC50 in the assay with TNFα (setting [2]) came out at 49 nM.

As for `Cc1nc(F)ccc1[C@H](Nc1cc(Cl)c2ncc(C#N)c(NC3CCOC3(C)C)c2c1)c1cn(C2(C(F)F)CC2)nn1` (stereo partly drawn) [Example 511, 8-chloro-6-(((S)-(1-(1-(difluoromethyl)-cyclopropyl)-1H-1,2,3-triazol-4-yl)(6-fluoro-2-methylpyridin-3-yl)methyl)amino)-4-((2,2-dimethyltetrahydrofuran-3-yl)amino)-quinoline-3-carbonitrile], on Human Cot (setting [1]), 6 nM corresponded to half-maximal inhibition (IC50). Also, the 50% effective concentration (EC50) in the assay on TNFα (setting [2]) is 133 nM.

Take `Cn1nccc1[C@H](Nc1cc(C#N)c2ncc(C#N)c(NCC(C)(C)C)c2c1)c1cn(C2(C(F)F)CC2)nn1` [Example 677, (S)-6-(((1-(l-(difluoromethyl)-cyclopropyl)-1H-1,2,3-triazol-4-yl)(1-methyl-1H-pyrazol-5-yl)methyl)amino)-4-(neopentylamino)quinoline-3,8-dicarbonitrile]: at Human Cot (read-out: IC50 HTRF, Cot HTRF (TR-FRET) biochemical assay), the IC50 turned out to be 4 nM. Moreover, the EC50 in the assay with TNFα (read-out: EC50 TNF, LPS-stimulated human monocytes, TNFα) came out at 133 nM.

At Human Cot (setting [1]), `CC(C)(C)CNc1c(C#N)cnc2c(Cl)cc(N[C@H](c3cn(C4(C)CC4)nn3)c3cccc4ncccc34)cc12` [Example 568, (S)-8-chloro-6-(((1-(1-methylcyclopropyl)-1H-1,2,3-triazol-4-yl)(quinolin-5-yl)methyl)amino)-4-(neopentylamino)-quinoline-3-carbonitrile] returned an IC50 of 5 nM. Also, the EC50 in the assay with TNFα (setting [2]) is 170 nM.

As for `COc1nccc2c([C@H](Nc3cc(Cl)c4ncc(C#N)c(NCC(C)(C)C(F)(F)F)c4c3)c3cn(C4(C)CC4)nn3)cccc12` [Example 927, (S)-8-chloro-6-(((1-methoxylsoquinolin-5-yl)(1-(1-methylcyclopropyl)-1H-1,2,3-triazol-4-yl)methyl)amino)-4-((3,3,3-trifluoro-2,2-dimethylpropyl)amino)quinoline-3-carbonitrile], at Human Cot (read-out: IC50 HTRF, Cot HTRF (TR-FRET KinEASE) biochemical assay, 400 μM ATP), the IC50 came to 6 nM. Also, the EC50 in the assay with TNFα (read-out: EC50 TNF, LPS-stimulated human monocytes, TNFα TR-FRET) was determined as 124 nM.

`Cc1nc(F)ccc1[C@H](Nc1cc(Cl)c2ncc(C#N)c(NCC(C)(C)C(F)(F)F)c2c1)c1cn(C2(C)CC2)nn1` [Example 720, (S)-8-chloro-6-(((6-fluoro-2-methylpyridin-3-yl)(1-(1-methylcyclopropyl)-1H-1,2,3-triazol-4-yl)methyl)amino)-4-((3,3,3-trifluoro-2,2-dimethylpropyl)amino)-quinoline-3-carbonitrile] came in with a half-inhibitory concentration (IC50) on Human Cot (setting [1]) of 2 nM. Besides, the EC50 with TNFα (setting [2]) came out at 35 nM.

With `[2H]C(Nc1cc(Cl)c2ncc(C#N)c(NCC(C)(C)C)c2c1)(c1cn(C2CC2)nn1)c1ccc(Cl)nc1C` (centres unmarked) [Example 125, 8-chloro-6-(((6-chloro-2-methylpyridin-3-yl)(1-cyclopropyl-1H-1,2,3-triazol-4-yl)methyl-d)amino)-4-(neopentylamino)quinoline-3-carbonitrile], at Human Cot (setting [1]), the concentration for half-maximal inhibition (IC50) worked out at 3 nM. In the assay with TNFα (setting [2]), the half-maximal effective concentration (EC50) amounted to 78 nM.

In the case of `N#Cc1cnc2c(Cl)cc(N[C@@H](c3cccnc3)c3cn(C4COC4)nn3)cc2c1Nc1cnc(F)c(F)c1` [Example 199, (S)-8-chloro-4-((5,6-difluoropyridin-3-yl)amino)-6-(((1-(oxetan-3-yl)-1H-1,2,3-triazol-4-yl)(pyridin-3-yl)methyl)amino)quinoline-3-carbonitrile], the 50% inhibitory concentration (IC50) on Human Cot (setting [1]) is 9 nM. The EC50 in the assay on TNFα (setting [2]) was found to be 2520 nM.

Take `Cc1nc(F)ccc1[C@H](Nc1cc(C#N)c2ncc(C#N)c(NCC(C)(C)C)c2c1)c1cn(C2(C(F)F)CC2)nn1` [Example 473, (S)-6-(((1-(1-(difluoromethyl)cyclopropyl)-1H-1,2,3-triazol-4-yl)(6-fluoro-2-methylpyridin-3-yl)methyl)amino)-4-(neopentylamino)quinoline-3,8-dicarbonitrile]: at Human Cot (setting [1]), the midpoint of inhibition, the IC50, lay at 2 nM. The concentration for a half-maximal effect (EC50) in the assay with TNFα (setting [2]) stood at 26 nM.

`Cc1nc(F)ccc1[C@H](Nc1cc(Cl)c2ncc(C#N)c(NCC(C)(C)C)c2c1)c1nnn(C)c1F` [Example 963, (S)-8-chloro-6-(((5-fluoro-1-methyl-1H-1,2,3-triazol-4-yl)(6-fluoro-2-methylpyridin-3-yl)methyl)amino)-4-(neopentylamino)quinoline-3-carbonitrile] returned an IC50 at Human Cot (setting [3]) of 4 nM. Further, the concentration for a half-maximal effect (EC50) in the assay with TNFα (setting [4]) amounted to 51 nM.

As to `CC(C)n1cc([C@@H](Nc2cc(Cl)c3ncc(C#N)c(Nc4ccc(F)c(Cl)c4)c3c2)c2csc3c2CCN(C)C3)nn1` [Example 345, (S)-8-chloro-4-((3-chloro-4-fluorophenyl)amino)-6-(((1-isopropyl-1H-1,2,3-triazol-4-yl)(6-methyl-4,5,6,7-tetrahydrothieno[2,3-c]pyridin-3-yl)methyl)amino)quinoline-3-carbonitrile], half-maximal inhibition against Human Cot (setting [1]) (IC50) was put at 3 nM. In the assay on TNFα (setting [2]), the EC50 was 73 nM.

As to `Cc1nc(F)ccc1[C@H](Nc1cc(C#N)c2ncc(C#N)c(NCC(C)(C)C)c2c1)c1cn(C2(C(F)(F)F)CC2)nn1` [Example 471, (S)-6-(((6-fluoro-2-methylpyridin-3-yl)(1-(1-(trifluoromethyl)cyclopropyl)-1H-1,2,3-triazol-4-yl)methyl)amino)-4-(neopentyl-amino)quinoline-3,8-dicarbonitrile], on Human Cot (setting [1]), half-maximal inhibition (IC50) required 3 nM. For the same compound, the half-maximal effective concentration (EC50) in the assay with TNFα (setting [2]) is 45 nM.

At Human Cot (setting [1]), `Cc1nc(F)ccc1[C@H](Nc1cc(C#N)c2ncc(C#N)c(NCC(C)(C)C)c2c1)c1cn(C(F)(F)CO)nn1` [Example 661, (S)-6-(((1-(1,1-difluoro-2-hydroxyethyl)-1 H-1,2,3-triazol-4-yl)(6-fluoro-2-methylpyridin-3-yl)methyl)amino)-4-(neopentylamino)quinoline-3,8-dicarbonitrile] returned an IC50 of 2 nM. Besides, the EC50 in the assay with TNFα (setting [2]) is 103 nM.

`CCC(C)n1cc([C@@H](Nc2cc(Cl)c3ncc(C#N)c(NCC(C)(C)C)c3c2)c2cccc3c(=O)n(C)ccc23)nn1` (some centres unmarked) [Example 801, 6-(((1 S)-(1-(sec-butyl)-1H-1,2,3-triazol-4-yl)(2-methyl-1-oxo-1,2-dihydroisoquinolin-5-yl)methyl)amino)-8-chloro-4-(neopentylamino)quinoline-3-carbonitrile]: the half-maximal inhibitory concentration (IC50) on Human Cot (setting [3]) came to 3 nM. In addition, in the assay on TNFα (setting [4]), the 50% effective concentration (EC50) amounted to 31 nM.

Regarding `Cc1nc(F)ccc1[C@H](Nc1cc(C#N)c2ncc(C#N)c(NCC(C)(C)C)c2c1)c1cn(C2(C(=O)N(C)C)CC2)nn1` [Example 642, (S)-1-(4-(((3,8-dicyano-4-(neopentylamino)quinolin-6-yl)amino)(6-fluoro-2-methylpyridin-3-yl)methyl)-1H-1,2,3-triazol-1-yl)-N,N-dimethylcyclopropane-1-carboxamide], at Human Cot (setting [1]), the half-maximal inhibitory concentration (IC50) turned out to be 5 nM. Also, the EC50 in the assay on TNFα (setting [2]) was 182 nM.

Consider `CC1(n2cc([C@@H](Nc3cc(Cl)c4ncc(C#N)c(NCC(C)(C)C(F)(F)F)c4c3)c3ccc(F)c4ncccc34)nn2)CC1` [Example 919, (S)-8-chloro-6-(((8-fluoroquinolin-5-yl)(1-(1-methylcyclopropyl)-1H-1,2,3-triazol-4-yl)methyl)amino)-4-((3,3,3-trifluoro-2,2-dimethylpropyl)amino)quinoline-3-carbonitrile], for which the IC50 on Human Cot (setting [3]) was 2 nM. In addition, in the assay on TNFα (setting [4]), the EC50 came to 49 nM.
